Assay results as given in the METLIN SMRT retention time set (Domingo-Almenara et al. 2019).

Assay: gradient 5% acetonitrile 3 min, to 50% in 2 min, to 85% in 15 min, held 3 min, 100 µL/min
Settings: column: Zorbax Extend-C18 2.1 x 50 mm; eluents: water / acetonitrile, 0.1% formic acid
Method in brief: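 Mixtures of ~100 pure standards were chromatographed on a Zorbax Extend-C18 column (2.1 × 50 mm, 1.8 μm) at 100 μL/min using water and acetonitrile, each with 0.1% formic acid. Detection used a quadrupole time-of-flight mass spectrometer in positive and negative ionization mode, and data collection spanned 3 months. Retention time was obtained from adduct peaks picked computationally and each checked manually.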

O=S(=O)(c1ccc(Cl)cc1)c1nc(-c2ccco2)oc1NCCCn1ccnc1
RP-LC retention time: 597 s

Cc1nc(-c2cn(C)c3ncccc23)sc1C(=O)Nc1ccc(F)cc1Cl
RP-LC retention time: 1050 s

CCOC(=O)c1csc(NC(=O)C2CCCN(c3cc(-n4cccn4)ncn3)C2)n1 (stereo not given)
RP-LC retention time: 796 s

Cc1nnc(-c2ccc(S(=O)(=O)N3CCCCCC3)o2)o1
RP-LC retention time: 834 s

Cc1nc(-c2ccc(N3CCN(C(=O)COc4ccc(F)cc4)CC3)nc2)sc1C
RP-LC retention time: 880 s

Cn1c(=O)c2c(nc3n(CCN4CCOCC4)c(C(C)(C)C)cn23)n(C)c1=O
RP-LC retention time: 552 s

CC(C)NC(=O)CN1C(=O)CC(c2ccc(Br)s2)=Nc2ccccc21
RP-LC retention time: 929 s

COc1ccc(NC(=O)c2cc(C(C)(C)C)n3nccc3n2)c(C)c1
RP-LC retention time: 1240 s

CCN1CCN(CCCNC(=O)c2nc(-c3oc4ccccc4c3C)no2)CC1
RP-LC retention time: 621 s

CN(C)C(=O)c1cc2c(s1)CCC(C(=O)NC1CCCCCC1)C2 (stereo not given)
RP-LC retention time: 751 s

Cc1ccc(NC(=O)N2CCN(c3nc(N)nc4sc(-c5cccnc5)nc34)CC2)cc1
RP-LC retention time: 799 s

CCC(=O)N1CCc2cc(N3CC(C(=O)Nc4ccccc4F)CC3=O)ccc21 (stereo not given)
RP-LC retention time: 741 s

CN1C(C)(C)CCCC1(C)C
RP-LC retention time: 614 s

O=C(Cn1cccc1-c1nc(-c2ccc3c(c2)OCO3)no1)Nc1ccc2c(c1)OCCO2
RP-LC retention time: 963 s

CCOc1ccc(C(=O)NCc2c(C)noc2C)cc1
RP-LC retention time: 733 s

CC(C)(C)NC(=O)N1CCCCC1c1nncn1-c1ccccc1 (stereo not given)
RP-LC retention time: 712 s

Cc1cc2c(cc1S(=O)(=O)N(C)CC(=O)N1CCN(c3ccccn3)CC1)OC(C)C(=O)N2 (stereo not given)
RP-LC retention time: 587 s

COCCn1nc2n(c1=O)CCN(C(=O)c1ccc(Br)o1)CC2
RP-LC retention time: 636 s

COCC(C)(O)CNS(=O)(=O)Cc1cccc(F)c1 (stereo not given)
RP-LC retention time: 641 s

Cc1ccc(-c2nnc(Cc3nc(-c4ccccc4Cl)no3)o2)cc1C
RP-LC retention time: 1230 s

CCNC(=O)c1n[nH]c2c1CN(C(=O)c1ccc(OC(F)(F)F)cc1)CC2
RP-LC retention time: 728 s

CS(=O)(=O)c1ccc2nc(NC(=O)c3coc(NC(=O)c4cccs4)n3)sc2c1
RP-LC retention time: 685 s

Cc1ccc(N2CN(CC(=O)N3CCCc4ccccc43)S(=O)(=O)c3cccnc32)cc1
RP-LC retention time: 1030 s

CCn1cc(CC(=O)NCCOC)c2cccnc21
RP-LC retention time: 576 s

COc1ccc(NC(=O)CCc2cccc3[nH]ccc23)c(C)c1
RP-LC retention time: 805 s

Cc1c(Cl)cccc1NC(=O)C1CCN(c2c(C(=O)N3CCC(C)CC3)cnc3snc(C)c23)CC1
RP-LC retention time: 1040 s

CN1CCC(Cc2ccc(C(=O)O)cc2)CC1
RP-LC retention time: 569 s

COC(=O)c1c(C)[nH]c(C(=O)N2CCC(CC(=O)NCCCc3ccccc3)CC2)c1C
RP-LC retention time: 867 s

Cc1c(Cl)cccc1Nc1c(-c2cccc(O)c2)nc2cnccn12
RP-LC retention time: 813 s

CCOCCCNC(=O)C1CCN(C2=NS(=O)(=O)C(c3ccc(CC)cc3)=C2C)CC1
RP-LC retention time: 810 s

O=C(CCSc1ccc(Cl)cc1)Nc1nc(-c2ccccc2)cs1
RP-LC retention time: 1170 s

CCN1c2cc(Cl)ccc2C(=O)NC12CCN(C(=O)Nc1ccccc1C)CC2
RP-LC retention time: 837 s

O=C(CCn1nnc2cc(-c3noc(-c4ccccc4Br)n3)ccc21)N1CCOCC1
RP-LC retention time: 896 s

CCC(C)NC(=O)c1c(C)sc2ccn(CC)c(=O)c12 (stereo not given)
RP-LC retention time: 709 s

COC(=O)[C@H](CCCN=C(N)N)NS(=O)(=O)c1ccc(C)cc1
RP-LC retention time: 667 s

COc1cccc(CNS(=O)(=O)c2ccccc2-c2nc(-c3cccc(F)c3)no2)c1
RP-LC retention time: 1150 s

Cc1cccc(C)c1NC(=O)Cn1c(=O)n(-c2ccccc2)c(=O)c2c1cc(C)n2C
RP-LC retention time: 864 s

CNC(=O)c1cc2c(cn1)[nH]c1ccccc12
RP-LC retention time: 706 s

C[C@@]1(O)CCN(Cc2cccc(F)c2F)C[C@H]1N1CCCC1
RP-LC retention time: 563 s

COC(=O)c1cnc(N2CCN(c3cc(Cl)ccc3C)CC2)c2ccccc12
RP-LC retention time: 651 s

CCC(=O)N1c2ccc(S(=O)(=O)CCC(=O)NC3CCN(Cc4ccccc4)CC3)cc2CC1C (stereo not given)
RP-LC retention time: 640 s

COc1ccc(CCN2C(=O)CC(N3CCN(c4ccccc4)CC3)C2=O)cc1OC (stereo not given)
RP-LC retention time: 780 s

CC(C)c1cc(=O)n(CC(=O)NCCn2nc(-c3cccs3)ccc2=O)cn1
RP-LC retention time: 619 s

Cc1ccc(F)cc1NS(=O)(=O)c1ccc(-c2nnc(C3CCC3)o2)o1
RP-LC retention time: 931 s

COC(=O)c1cnc(N2CCN(c3ccccc3F)CC2)c2ccccc12
RP-LC retention time: 1240 s

CCn1cc(-c2ccc(Cl)cc2)cc1C(=O)NCCCN1CCCC1=O
RP-LC retention time: 879 s

Cc1ccc2[nH]c(C(=O)NC3CCN(C)CC3)cc2c1
RP-LC retention time: 845 s

CCCNc1cc(N2CCC(CCC(=O)NCc3ccccc3Cl)CC2)ncn1
RP-LC retention time: 718 s

COc1ccc(S(=O)(=O)N2CCC(c3noc(-c4cnccn4)n3)C2)cc1 (stereo not given)
RP-LC retention time: 784 s

COc1ccc2c(c1)C1(CCN(C(=O)Nc3cccc(F)c3)C1)C(=O)N2 (stereo not given)
RP-LC retention time: 683 s

Cc1ccccc1NC(=O)C1CCN(S(=O)(=O)c2ccc3c(c2)sc(=O)n3C(C)C)CC1
RP-LC retention time: 951 s

Cc1ccc(N2CCN(C(=O)C3=CCN(Cc4cccc(C)c4)CC3)CC2)cc1
RP-LC retention time: 697 s

CN(CC(=O)NCc1ccncc1)c1nc2c(Cl)cccc2s1
RP-LC retention time: 564 s

COc1ccc(-n2c(=O)n(C)c(=O)c3cc(C(=O)NCc4ccco4)cnc32)cc1
RP-LC retention time: 764 s

CCC(C)NC(=O)CCn1c(=O)c2ccccc2n2c(=O)n(Cc3ccccc3)nc12 (stereo not given)
RP-LC retention time: 856 s

COCCN1C(=O)[C@H]2CN(Cc3ccc(OC)c(OC)c3OC)C[C@H]2C1=O
RP-LC retention time: 799 s

Cn1c(=O)n(CC(N)=O)c(=O)c2c1nc1n2CCCN1C1CCCCC1
RP-LC retention time: 657 s

O=C(Cc1cc(-c2ccc3c(c2)OCO3)on1)Nc1ccc(F)c(F)c1F
RP-LC retention time: 888 s

CC(C)Cc1csc(-c2csc(S(=O)(=O)NCc3cccs3)c2)n1
RP-LC retention time: 1150 s

O=C(c1cc[nH]c(=O)c1)N1C[C@@H](COCC2CC2)[C@H](c2ccncc2)C1
RP-LC retention time: 555 s

Cc1ccc(-c2cc3n(n2)CCCN(C(=O)c2ccsc2)C3)cc1
RP-LC retention time: 845 s

Cc1cc(NC(=O)c2cnc3c(c2)c(=O)n(C)c(=O)n3-c2ccccc2)ccc1F
RP-LC retention time: 942 s

COc1cn(CC(=O)Nc2ccc(C)c(Cl)c2)c(CN2CCN(C(C)=O)CC2)cc1=O
RP-LC retention time: 595 s

CCN1C(=O)c2cc(C(=O)Nc3ccccc3C)nn2CC1(C)C(=O)NC1CCCC1 (stereo not given)
RP-LC retention time: 807 s

Cc1cnc(C2CCC2)n1CC1CCN(C(=O)C2(c3ccccc3)CC2)CC1
RP-LC retention time: 592 s

Cc1nn(C2CCS(=O)(=O)C2)c(C)c1N1CCN(S(=O)(=O)c2cccs2)CC1 (stereo not given)
RP-LC retention time: 752 s

CCCn1ccc2sc(C)c(C(=O)NC(C)c3ccc(F)cc3)c2c1=O (stereo not given)
RP-LC retention time: 994 s

CSc1ccc(CNC(=O)C2CCCN(C(=O)Cc3cccc4ccccc34)C2)cc1 (stereo not given)
RP-LC retention time: 951 s

Cc1cc(-c2nnc(C3CCC3)o2)c(C)n1CC(=O)Nc1ccc2c(c1)OCCO2
RP-LC retention time: 836 s

O=C(OCCN1CCCCC1)c1c[nH]c2ccccc12
RP-LC retention time: 666 s

CCC(C)NC(=O)N1CCn2nnc(CCC(=O)N3CCOCC3)c2C1 (stereo not given)
RP-LC retention time: 598 s

O=C(c1ccc(F)c(Cl)c1)N1CCN(c2cc(-c3cccnc3)[nH]n2)CC1
RP-LC retention time: 620 s

Cc1ccc(NC(=O)Cn2cccc2-c2nnc(C3CCC3)o2)c(C)c1
RP-LC retention time: 963 s

Cc1ccc(CNC(=O)CCNc2c(-c3ccc(F)cc3)nc3cnccn23)o1
RP-LC retention time: 694 s

CSc1ccc(-c2nc3ncccn3c2Nc2ccc(C)cc2C)cc1
RP-LC retention time: 898 s

O=S(=O)(c1ccc2nc(N3CCN(c4ccc(F)cc4)CC3)ccc2c1)N1CCOCC1
RP-LC retention time: 890 s

Cc1ccccc1-c1ccc(N2CCCC(C(=O)NC(C)CCc3ccccc3)C2)nn1 (stereo not given)
RP-LC retention time: 817 s

CCOC(=O)CCNC(=O)NCc1nnnn1-c1ccc(OCC)cc1
RP-LC retention time: 675 s

CCS(=O)(=O)N1CC(=O)N(c2cc(C)ccc2C)C(C)(C(=O)NCc2ccc(F)cc2)C1 (stereo not given)
RP-LC retention time: 861 s

O=C(O)/C=C/C(=O)N1Cc2cc3ccccc3nc2C1
RP-LC retention time: 681 s

CCC1CN2C=NC(N3CCN(C(=O)NCc4cccc(OC)c4)CC3)=CC2=N1 (stereo not given)
RP-LC retention time: 614 s

Cc1cc(Cl)ccc1N1C(=O)CN(S(C)(=O)=O)CC1(C)C(=O)NC1CCCCCCC1 (stereo not given)
RP-LC retention time: 1010 s

Cc1ccc(Cn2c(=O)c(SCC(=O)NCC3CCCO3)nc3ccccc32)cc1 (stereo not given)
RP-LC retention time: 889 s

CC(=O)Nc1nnc(C2=COCCO2)o1
RP-LC retention time: 515 s

CCCN1CCN(CCCNc2nc(-c3ccc(Cl)cc3)nc3ccccc23)CC1
RP-LC retention time: 584 s

COc1ccc(-c2cn3ccn(-c4cccc(F)c4)c(=O)c3n2)cc1
RP-LC retention time: 821 s

O=C(CN1CCCc2nc(C3CC3)ncc2C1=O)NCCCN1CCOCC1
RP-LC retention time: 563 s

CCN1CCCC1CNC(=O)c1nnc(Cc2cc(OC)c(OC)c(OC)c2)o1 (stereo not given)
RP-LC retention time: 586 s

O=C(c1c(F)cccc1F)N(CC1CCOC1)C1CC1 (stereo not given)
RP-LC retention time: 769 s

O=C(CC1CCCN(c2cnn(CC3CC3)c(=O)c2)C1)NC1CC1 (stereo not given)
RP-LC retention time: 651 s
